Results taken from US11147803B2, “Dementia therapeutic agent combining pyrazoloquinoline derivative and memantine” (Eisai R&D Management Co., Ltd., priority 2017, dated 2021).

System: rats with scopolamine-induced cognitive impairment
Assay: Novel object recognition test using rats with scopolamine-induced cognitive impairment
Assay type: in vivo, rat (Long Evans)
Conditions: for percentage of exploration of the novel object in T2: scopolamine 0.7 mg/kg s.c., mean±standard error
Source text: [Test Example 1] Novel Object Recognition Test Using Rats with Scopolamine-Induced Cognitive Impairment
Acetylcholine nervous system disorder has been reported in Alzheimer's disease (Whitehouse et al., Science, 1982, vol. 215, p. 1237), and scopolamine-administered animals are utilizable as an animal model for Alzheimer's disease. Scopolamine is a muscarine receptor inhibitor which blocks acetylcholine nervous system transmission.
6-week-old male Long Evans rats (Institute for Animal Reproduction) were subjected to the test. A habituation process to the experimental procedure was carried out once per day for 2 days prior to the test. In the habituation process, a vehicle was administered to the rats, and then the rats were placed in an empty test apparatus (40 cm×30 cm×45 cm height) and allowed to explore for 3 minutes, and after then placed in a waiting chamber (13 cm×30 cm×45 cm height) for about 1 minute, they were returned to the empty test apparatus again and left for 5 minutes.
An acquisition trial (T1) was carried out on the day of the test. Compound (I) was orally administered 2 hours before T1. Memantine hydrochloride was orally administered 1 hour before T1. Scopolamine (Wako Pure Chemical Industries, Ltd.) was subcutaneously administered 30 minutes before T1 at a dose of 0.7 mg/kg. In T1, the rats were habituated to the empty test apparatus for 3 minutes and then placed in the waiting chamber. After setting two identical objects in the test apparatus, the rats were returned into the test apparatus again and allowed to freely explore the two identical objects for 5 minutes. The rats were then returned into their rearing cages. After 2 hours, a retention trial (T2) was carried out. The rats were placed in the empty test apparatus for 3 minutes for habituation, and were then transferred into the waiting chamber. After setting an object used in T1 (“familiar” object) and an object not used in T1 (“novel” object) in the test apparatus, the rats were again returned into the test apparatus and allowed to freely explore these objects for 3 minutes. The objects were wiped with a wet wipe impregnated with ethanol after each experiment so as to leave no trace of odor. The behaviors of the rats during T1 and T2 were recorded by a digital video camera, and the total exploration time for each object was manually measured using a stopwatch. Exploratory behavior was defined as the behavior in which the rat brings its nose within 2 cm of the object and directs its nose toward the object.
In the novel object recognition test, the percentage of exploration of the novel object in T2 is considered to be an index for amnesia, reflecting discrimination between the familiar object and the novel object. The percentage of exploration of the novel object was calculated by the following formula. The percentage of exploration of the novel object (%)=N/(N+F)×100 F: time spent in exploring the familiar object N: time spent in exploring the novel object
Rats whose total time spent in exploring the objects during T1 or T2 was 10 seconds or less or rats whose percentage of the time spent in exploring either of the objects during T1 was not less than 70% or not more than 30% of the total exploration time were excluded from the data analysis.
The results were expressed as mean±standard error. The difference between the normal control group untreated with scopolamine and the disease control group treated with scopolamine was analyzed by an unpaired t-test (significant difference: *). The difference between the disease control group and the single drug-treated group was analyzed by Dunnett-type multiple comparison test (significant difference: #). The difference between the combined treatment group and the single drug-treated group was analyzed by an unpaired t-test (significant difference: ※). A value of p<0.05 was judged to be a statistically significant difference. Statistical analysis was conducted using GraphPad Prism version 5.04 or 6.02.

Structure (SMILES) | percentage of exploration of the novel object in T2 (Compound (I) 0.3 mg/kg orally 2 hours before T1) | percentage of exploration of the novel object in T2 (Compound (I) 1 mg/kg orally 2 hours before T1) | percentage of exploration of the novel object in T2 (Compound (I) 3.3 mg/kg orally 2 hours before T1, # significant vs disease control) | percentage of exploration of the novel object in T2 (Compound (I) 10 mg/kg orally 2 hours before T1, # significant vs disease control) | ameliorative effect on the percentage of exploration of the novel object (significance vs disease control) (compound (I) 1 mg/kg (Table 1)) | ameliorative effect on the percentage of exploration of the novel object (significance vs disease control) (compound (I) 3.3 mg/kg (Table 2)) | percentage of exploration of the novel object in T2 (Memantine 1 mg/kg orally 1 hour before T1) | percentage of exploration of the novel object in T2 (Memantine 3 mg/kg orally 1 hour before T1, # significant vs disease control) | percentage of exploration of the novel object in T2 (Memantine 10 mg/kg orally 1 hour before T1) | ameliorative effect on the percentage of exploration of the novel object (significance vs disease control) (memantine hydrochloride 1 mg/kg alone (Table 4)) | ameliorative effect on the percentage of exploration of the novel object (significance vs disease control) (memantine hydrochloride 3 mg/kg (Table 3))
COc1ncc(C)c(-c2ccc3c(c2)[nH]c(=O)c2cnn([C@H]4CCOC4)c23)c1C [Compound (I), (S)-7-(2-methoxy-3,5-dimethylpyridin-4-yl)-1-(tetrahydrofuran-3-yl)-1H-pyrazolo[4,3-c]quinoline-4(5H)-one] | 58.7 ± 3.2% | 59.9 ± 3.4% | 68.5 ± 2.0# % | 68.5 ± 1.6# % | did not exhibit a significant effect | significant ameliorative effect |  |  |  |  | 
CC12CC3CC(C)(C1)CC(N)(C3)C2 [Memantine, memantine] |  |  |  |  |  |  | 58.1 ± 2.4% | 68.9 ± 4.0# % | 59.9 ± 3.8% | no significant ameliorative effect | significant ameliorative effect
